Experimental data reported in US10444149B2, “Fluorescent compounds as sensing agents” (OHIO NORTHERN UNIVERSITY, priority 2016, dated 2019).
Marks after values point to notes of the source that are not given here.

Test: Peak absorption wavelength, peak emission wavelength and fluorescent quantum yield
Format: physicochemical
Conditions: solvent acetonitrile
From the text: Table 2 provides a peak absorption wavelength (λabs maximum), peak emission wavelength (λem maximum), a fluorescent quantum yield (ΦF), and a synthesis yield for the various compounds. The synthesis yield is based on the synthetic pathway illustrated in FIG. 1.

| ΦF | λabs maximum [nm] | λem maximum [nm] | Compound |
| --- | --- | --- | --- |
| 8** % | 380 | 468 | COC(=O)C(C)(C)C1Oc2ccc(C)cc2C(=O)/C1=C\NS(=O)(=O)c1ccc(C)cc1 (stereo not drawn) [Compound 19, (Z)-methyl 2-methyl-2-(6-methyl-3-((4-methylphenylsulfonamido)methy-lene)-4-oxochroman-2-yl)propanoate] |

Same assay, conditions: solvent cyclohexane

| ΦF | λabs maximum [nm] | λem maximum [nm] | Compound |
| --- | --- | --- | --- |
| 27*** % | 364 | 479 | COC(=O)C(C)(C)C1Oc2ccc(C)cc2C(=O)/C1=C\NS(=O)(=O)c1ccc(C)cc1 (stereo not drawn) [Compound 19, (Z)-methyl 2-methyl-2-(6-methyl-3-((4-methylphenylsulfonamido)methy-lene)-4-oxochroman-2-yl)propanoate] |

Same assay, conditions: solvent dichloromethane

| ΦF | λabs maximum [nm] | λem maximum [nm] | Compound |
| --- | --- | --- | --- |
| 6* % | 362 | 446 | COC(=O)C(C)(C)C1Oc2ccccc2C(=O)/C1=C\O (stereo not drawn) [Compound 5, (Z)-methyl 2-(3-(hydroxymethylene)-4-oxochroman-2-yl)-2-methylpropanoate] |
| 2* % | 364 | 486 | COC(=O)C(C)(C)C1Oc2ccc(F)cc2C(=O)/C1=C\O (stereo not drawn) [Compound 6, (Z)-methyl 2-(6-fluoro-3-(hydroxymethylene)-4-oxochroman-2-yl)-2-methylpropanoate] |
| 3* % | 371 | 451 | COC(=O)C(C)(C)C1Oc2c(Br)cc(Br)cc2C(=O)/C1=C\O (stereo not drawn) [Compound 14, (Z)-methyl 2-(6,8-dibromo-3-(hydroxymethylene)-4-oxochroman-2-yl)-2-methylpropanoate] |
| 37* % | 358 | 479 | COC(=O)C(C)(C)C1Oc2ccccc2C(=O)/C1=C\NS(=O)(=O)c1ccc(C)cc1 (stereo not drawn) [Compound 15, (Z)-methyl 2-methyl-2-(3-((4-methylphenylsulfonamido)methy-lene)-4-oxochroman-2-yl)propanoate] |
| 33* % | 367 | 492 | COC(=O)C(C)(C)C1Oc2ccc(F)cc2C(=O)/C1=C\NS(=O)(=O)c1ccc(C)cc1 (stereo not drawn) [Compound 16, (Z)-methyl 2-(6-fluoro-3-((4-methylphenylsulfonamido)methy-lene)-4-oxochroman-2-yl)-2-methylpropanoate] |
| 39* % | 367 | 483 | COC(=O)C(C)(C)C1Oc2ccc(Cl)cc2C(=O)/C1=C\NS(=O)(=O)c1ccc(C)cc1 (stereo not drawn) [Compound 17, (Z)-methyl 2-(6-chloro-3-((4-methylphenylsulfonamido)methy-lene)-4-oxochroman-2-yl)-2-methylpropanoate] |
| 34* % | 343 | 483 | COC(=O)C(C)(C)C1Oc2ccc(Br)cc2C(=O)/C1=C\NS(=O)(=O)c1ccc(C)cc1 (stereo not drawn) [Compound 18, (Z)-methyl 2-(6-bromo-3-((4-methylphenylsulfonamido)methy-lene)-4-oxochroman-2-yl)-2-methylpropanoate] |
| 70* % | 367 | 492 | COC(=O)C(C)(C)C1Oc2ccc(C)cc2C(=O)/C1=C\NS(=O)(=O)c1ccc(C)cc1 (stereo not drawn) [Compound 19, (Z)-methyl 2-methyl-2-(6-methyl-3-((4-methylphenylsulfonamido)methy-lene)-4-oxochroman-2-yl)propanoate] |
| 71* % | 368 | 490 | COC(=O)C(C)(C)C1Oc2ccc(C(C)C)cc2C(=O)/C1=C\NS(=O)(=O)c1ccc(C)cc1 (stereo not drawn) [Compound 21, (Z)methyl-2-(6-isopropyl-3-(((4-methylphenyl)sulfonamido)methy-lene)-4-oxochroman-2-yl)-2-methylpropanoate] |
| 66* % | 390 | 529 | COC(=O)C(C)(C)C1Oc2ccc(OC)cc2C(=O)/C1=C\NS(=O)(=O)c1ccc(C)cc1 (stereo not drawn) [Compound 22, (Z)-methyl-2-(6-methoxy-3-(((4-methylphenyl)sulfonamido)methy-lene)-4-oxochroman-2-yl)-2-methylpropanoate] |
| 38* % | 358 | 479 | COC(=O)C(C)(C)C1Oc2ccccc2C(=O)/C1=C\NS(=O)(=O)c1ccc(OC)cc1 (stereo not drawn) [Compound 23, (Z)methyl-2-(3-(((4-methoxyphenyl)sulfonamido)methy-lene)-4-oxochroman-2-yl)-2-methylpropanoate] |
